From PubChem BioAssay (NCI)
Where “and” joins values, the source holds several entries; their conditions need not be identical. Equal values may be shown once.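 A five-concentration, 48-hour dose response in 96-well plates underlies each endpoint, interpolated linearly between surrounding concentrations. GI50: concentration for 50% inhibition of growth. At the TGI there is no net growth.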

Legend:
Experiment in all cases: NCI-60 cell line screen, 48 h
ACHN renal = test system: ACHN renal
HL-60(TB) leukemia = test system: HL-60(TB) leukemia
IGROV1 ovarian = test system: IGROV1 ovarian
NCI-H23 lung = test system: NCI-H23 lung
NCI-H460 lung = test system: NCI-H460 lung
OVCAR-4 ovarian = test system: OVCAR-4 ovarian
SF-539 CNS = test system: SF-539 CNS
SK-MEL-28 melanoma = test system: SK-MEL-28 melanoma
SR leukemia = test system: SR leukemia
NCI-H522 lung = test system: NCI-H522 lung

Row | SMILES | TGI (ACHN renal) | TGI (HL-60(TB) leukemia) | TGI (IGROV1 ovarian) | TGI (NCI-H23 lung) | TGI (NCI-H460 lung) | TGI (OVCAR-4 ovarian) | TGI (SF-539 CNS) | TGI (SK-MEL-28 melanoma) | TGI (SR leukemia) | GI50 (ACHN renal) | GI50 (HL-60(TB) leukemia) | GI50 (IGROV1 ovarian) | GI50 (NCI-H23 lung) | GI50 (NCI-H460 lung) | GI50 (NCI-H522 lung) | TGI (NCI-H522 lung) | GI50 (OVCAR-4 ovarian) | GI50 (SF-539 CNS) | GI50 (SK-MEL-28 melanoma) | GI50 (SR leukemia)
1 | CSc1ccc(Cc2cc(C(C)(C)C)cc(C(C)(C)C)c2O)cc1 | 29 µM | 25.1 µM | 26.7 µM | 28.7 µM | 27.2 µM | 28.9 µM | 31.8 µM | 30.8 µM | 24.7 µM |  |  |  |  |  |  |  |  |  |  | 
2 | NC(CCl)=NCC12CC3CC(CC(C3)C1)C2 | 11.6 µM | 3.78 µM | 31.7 µM | 4.17 µM | 4.6 µM | 17.4 µM | 11.2 µM | 15.5 µM | 0.706 µM | 0.567 µM | 1.06 µM | 0.525 µM | 0.678 µM | 0.44 µM | 0.391 µM | 2.19 µM | 1.87 µM | 0.702 µM | 1.58 µM | 0.116 µM
3 | CC1=NC(C)=C(/C(C)=N/NC(=O)c2ccccc2O)C(C)/C1=C(/C)NNC(=O)c1ccccc1O (stereo not drawn) | 86.4 µM | 22.4 µM | 33 µM | 26.9 µM | 66.6 µM | 48.4 µM | 76.2 µM | > 100 µM | 42.5 µM |  |  |  |  |  |  | 43.6 µM |  |  |  | 
4 | Oc1ccc(O)c(-n2cccn2)c1 | > 100 µM | 44.8 µM | > 100 µM | > 100 µM | > 100 µM | > 100 µM | > 100 µM | > 100 µM |  |  |  |  |  |  |  | 34.7 µM |  |  |  | 
5 | COc1ccc(-c2c(NC(=O)Nc3ccc(Cl)c(C(F)(F)F)c3)cnn2-c2ccc(S(N)(=O)=O)cc2)cc1 | 14.2 µM | 5.67 µM | 21.3 µM | 12.4 µM | 10.4 µM | 13.1 µM | 9.9 µM | 13.7 µM | 5.83 µM | 3.97 µM | 2.27 µM | 3.66 µM | 3.14 µM | 3.5 µM | 2.98 µM | 12.3 µM | 2.9 µM | 3.06 µM | 3.73 µM | 1.99 µM
6 | CC(=O)OC1CC2C(C)(C)C(=O)C=C[C@]2(C)C2CCC3(C)C(c4ccoc4)C(=O)C4OC43[C@]12C (stereo partly drawn) | 85 µM | 29.9 µM | 47.5 µM | 31.2 µM | 33.3 µM | 58.9 µM | 40.2 µM | 32 µM | 39.4 µM |  |  |  |  |  |  | 26.9 µM |  |  |  | 
7 | C[N+]1(CCNP(=S)(NCC[N+]2(C)Cc3c(ccc4c3OCO4)C3C2c2cc4c(cc2C[C@@H]3O)OCO4)NCC[N+]2(C)Cc3c(ccc4c3OCO4)C3C2c2cc4c(cc2C[C@@H]3O)OCO4)Cc2c(ccc3c2OCO3)C2C1c1cc3c(cc1C[C@H]2O)OCO3 (stereo partly drawn) |  |  |  |  |  |  |  |  |  | 4.16 µM | 1.02 µM | 4.9 µM | 2.25 µM | 0.976 µM | 2.55 µM |  | 4.74 µM | 1.99 µM | 3.51 µM | 1.75 µM
8 | COc1ccc(-c2oc3ncnc(N)c3c2-c2ccc(NC(=O)Nc3cc(C(F)(F)F)ccc3F)cc2)cc1 | 7.89 µM | 9.31 µM | 5.82 µM | 3.26 µM | 2.97 µM | 8.45 µM | 5.41 µM | 5.26 µM | 8.61 µM | 0.95 µM | 2.58 µM | 0.995 µM | 0.823 µM | 0.85 µM | 1.23 µM | 4.28 µM | 1.05 µM | 1.55 µM | 1.94 µM | 0.833 µM
9 | CCCCSC1CCSc2c1ccc1ccccc21 (stereo not drawn) |  | > 100 µM | > 100 µM | > 100 µM |  | > 100 µM | > 100 µM | > 100 µM | > 100 µM |  |  |  |  |  |  |  |  |  |  | 
10 | Oc1cccc2cccnc12 | > 100 µM |  | 28.9 µM and 24.4 µM and > 100 µM | 18.9 µM and > 100 µM | 23.4 µM and > 100 µM and 21.9 µM | > 87.6 µM and 83.3 µM and > 100 µM | 54.1 µM and 81.1 µM and > 100 µM | > 100 µM | 23.7 µM and 3.71 µM | 5.98 µM and 23.1 µM and 6 µM |  |  | 2.49 µM and 13.4 µM and 3.93 µM | 1.6 µM and 3.32 µM and 3.85 µM | 0.22 µM and 0.487 µM and 1.92 µM |  | 6.13 µM and 19.9 µM and 3.37 µM | 4.56 µM and 26.9 µM and 4.11 µM | 16.9 µM and > 100 µM and > 55.5 µM | 
11 | COc1ccc(NC(=O)c2ccc(C(F)(F)F)nc2Nc2ccc(Cl)cc2C)cc1Cl | 18.6 µM | 5.37 µM |  | 15.1 µM | 12.1 µM | 17.5 µM | 23.5 µM | 16.9 µM | 6.46 µM | 5.36 µM | 2.4 µM |  | 3.09 µM | 2.9 µM | 3.53 µM | 15.4 µM | 3.18 µM | 9.01 µM | 5.2 µM | 1.72 µM
12 | Cc1ccc(S(=O)(=O)NC(Cc2ccccc2)C(=O)CCl)cc1 (stereo not drawn) | 30.1 µM | > 100 µM | 28.8 µM | 26.8 µM | 29.3 µM | 18.9 µM | 30.4 µM | 32.9 µM |  |  |  |  |  |  |  | 21.4 µM |  |  |  | 
13 | O=C(NC1CCCCC1)NC12CC3CC(CC(F)(C3)C1)C2 | > 100 µM | > 100 µM | > 100 µM | > 100 µM | > 100 µM |  | > 100 µM | > 100 µM |  |  |  |  |  |  |  | > 100 µM |  |  |  | 
14 | CC(=O)NNc1ncc(C(=O)/C=C/c2ccccc2C)s1 | > 100 µM | > 100 µM | > 100 µM | > 100 µM | > 100 µM |  | > 100 µM | > 100 µM |  |  |  |  |  |  |  | > 100 µM |  |  |  | 
15 | C=C1C2CC(OC(C)=O)C3(C)C(c4ccoc4)OC(=O)[C@@H](O)[C@]13OC1C[C@H](OC(C)=O)C(C)(C)[C@H](C(O)C(=O)OC)[C@]12C (stereo partly drawn) | > 100 µM | > 100 µM | > 100 µM | > 100 µM | > 100 µM | > 100 µM | > 100 µM | > 100 µM |  |  |  |  |  |  |  |  |  |  |  | 
16 | FC(F)(F)c1cccc(Oc2ccc(Nc3ncnc4ccc(OCCCN5CCOCC5)cc34)cc2Cl)c1 | 11.1 µM | 4.88 µM | 3.16 µM | 13.4 µM | 3.56 µM | 12.7 µM | 3.33 µM | 3.01 µM |  | 1.62 µM | 2.03 µM | 1.01 µM | 3.19 µM | 1.9 µM | 0.833 µM | 3.3 µM | 2.52 µM | 1.86 µM | 1.64 µM | 
17 | Cc1cc(C)c([I+]c2c(C)cc(C)cc2C)c(C)c1 | 2.47 µM |  |  | 1.83 µM | 2.3 µM | 1.35 µM | 2.16 µM | 2.08 µM |  | 1.17 µM |  |  | 0.334 µM | 0.846 µM | 0.351 µM | 1.45 µM | 0.277 µM | 0.891 µM | 0.774 µM | 
